This series deals with ncRNAs (SEQ ID NO 28-89). As to the kind of experiment: ncRNA arrays of melanocytes, keratinocytes, normal skin, melanoma cell lines and patient samples. More on the design: species or system human. The settings on record: for ncRNA array expression, patient 2: melanoma patient 2 sample compared to normal skin; for ncRNA array expression, patient 3: melanoma patient 3 sample compared to normal skin; for ncRNA array expression, patient 4: melanoma patient 4 sample compared to normal skin; for ncRNA array expression, patient 5: melanoma patient 5 sample compared to normal skin; for ncRNA array expression, patient 6: melanoma patient 6 sample compared to normal skin; for ncRNA array expression, patient 7: melanoma patient 7 sample compared to normal skin; for ncRNA array expression, patient 8: melanoma patient 8 sample compared to normal skin; for ncRNA array expression, patient 9: melanoma patient 9 sample compared to normal skin; for ncRNA array expression, patient 10: melanoma patient 10 sample compared to normal skin; for ncRNA array expression, patient 19: melanoma patient 19 sample compared to normal skin; for ncRNA array expression, patient 20: melanoma patient 20 sample compared to normal skin; for ncRNA array expression, patient 21: melanoma patient 21 sample compared to normal skin; for ncRNA array expression, patient 22: melanoma patient 22 sample compared to normal skin; for ncRNA array expression, patient 23: melanoma patient 23 sample compared to normal skin; for ncRNA array expression, patient 24: melanoma patient 24 sample compared to normal skin; for ncRNA array expression, patient 25: melanoma patient 25 sample compared to normal skin; for ncRNA array expression, patient 26: melanoma patient 26 sample compared to normal skin; for ncRNA array expression, patient 27: melanoma patient 27 sample compared to normal skin; for ncRNA array expression, patient 28: melanoma patient 28 sample compared to normal skin; for ncRNA array expression, patient 29: melanoma patient 29 sample compared to normal skin; for ncRNA array expression, patient 30: melanoma patient 30 sample compared to normal skin. As for the experimental part: An ncRNA array platform that contains over 10,000 putative (>200 nt) ncRNAs including most of the known ncRNAs in mouse and human was conducted to evaluate ncRNAs within melanoma. Lack of coding potential was estimated by an algorithm that scores various characteristics of protein-coding genes, including open reading frame length, synonymous/non-synonymous base substitution rates and similarity to known proteins. These arrays provide the first generation of tools designed to analyze the dynamic expression of a large subset of ncRNAs in human and mouse and to identify candidate genes for more detailed functional analysis. In addition to the ncRNA content, probes targeting mRNA content from RefSeq are also included, allowing discovery of coordinated expression with associated protein-coding genes. The result of these assays is a list of ncRNA genes (i.e. SEQ ID NO 28-89) and maps of their sequence boundaries. We have profiled total RNA isolated from melanocytes, keratinocytes, normal human skin, melanoma cell lines and melanoma patient samples to identify differentially expressed ncRNAs in cell lines and tissues. ncRNAs expression in all tested samples were compared to either melanocytes or normal skin. We have identified a group of ncRNAs that are specific for (a) melanocytes (b) Keratinocytes (c) Melanoma cell lines (d) Melanoma patients. […] Probe DNA sequences for this array include: AF086032 (SEQ ID NO 107) […] BC071821 (SEQ ID NO 108) […] C AK130193 (SEQ ID NO 109) […] AL109719 (SEQ ID NO 110) […] AF085888 (SEQ ID NO 111) […] T BC033879 (SEQ ID NO 112) […] AA AK024556 (SEQ ID NO 113) […] Probe nomenclature is standard genebank IDs given by NCBI and other organizations.
Keratinocytes specific signatures were subtracted and resultant ncRNAs were validated by qRT-PCR and Northern blots. Results point out the presence of a group of melanoma specific ncRNAs (i.e. SEQ ID NO 28-89).

With “SEQ ID NO 28 (CTTAATGTATCTAAGGTTGGCTTAATCCTGTCTAAAATCAAGGTATTGGACTAGAACAAT; DNA, backbone and methylation of C not given here; listed as Homo sapiens)”, the “ncRNA array expression, patient 2” value worked out at 2.064; the “ncRNA array expression, patient 3” value is reported as 2.037; the “ncRNA array expression, patient 4” value amounted to 2.709; the “ncRNA array expression, patient 5” value came out at 1.822. The “ncRNA array expression, patient 6” value was −0.1399; the “ncRNA array expression, patient 7” value was found to be 2.032; the “ncRNA array expression, patient 8” value turned out to be 1.588; the “ncRNA array expression, patient 9” value came out at 0.7923. Further, the “ncRNA array expression, patient 10” value is −0.2665; the “ncRNA array expression, patient 19” value was 0.5486; the “ncRNA array expression, patient 20” value was found to be 1.334; the “ncRNA array expression, patient 21” value is reported as 0.4728. Moreover, the “ncRNA array expression, patient 22” value amounted to 1.388; the “ncRNA array expression, patient 23” value is listed as 2.286; the “ncRNA array expression, patient 24” value was found to be 0.3368; the “ncRNA array expression, patient 25” value amounted to 2.417. Moreover, the “ncRNA array expression, patient 26” value worked out at 3.091; the “ncRNA array expression, patient 27” value stood at 2.371; the “ncRNA array expression, patient 28” value is listed as 3.316; the “ncRNA array expression, patient 29” value amounted to 3.278. Also, the “ncRNA array expression, patient 30” value was −1.35.
Consider “SEQ ID NO 29 (TTAAATACATGTTTCTAATATTTTAGTGTTTTGTATTTAGGTTATTTATTCTTTGTATCT; DNA, backbone and methylation of C not given here; listed as Homo sapiens)”, for which the “ncRNA array expression, patient 2” value amounted to 3.623; the “ncRNA array expression, patient 3” value came to 2.485; the “ncRNA array expression, patient 4” value is 3.452; the “ncRNA array expression, patient 5” value was determined as 2.59. For the same substance, the “ncRNA array expression, patient 6” value is on record as 1.012; the “ncRNA array expression, patient 7” value came out at 2.658; the “ncRNA array expression, patient 8” value was 3.211; the “ncRNA array expression, patient 9” value came out at 2.109. Also, the “ncRNA array expression, patient 10” value came out at 2.287; the “ncRNA array expression, patient 19” value stood at 0.6625; the “ncRNA array expression, patient 20” value was 2.377; the “ncRNA array expression, patient 21” value was found to be 2.504. Besides, the “ncRNA array expression, patient 22” value is 1.796; the “ncRNA array expression, patient 23” value is recorded as 1.689; the “ncRNA array expression, patient 24” value worked out at 2.143; the “ncRNA array expression, patient 25” value stood at 3.284. In addition, the “ncRNA array expression, patient 26” value is reported as 3.992; the “ncRNA array expression, patient 27” value came out at 2.873; the “ncRNA array expression, patient 28” value came out at 2.81; the “ncRNA array expression, patient 29” value stood at 4.101. In addition, the “ncRNA array expression, patient 30” value is on record as −2.062.
“SEQ ID NO 30 (ATTCCAAGGCCTATTAAAATTTCTGAGCATTGCCCATTTCTTTTGCTTTATCTGTAGGAC; DNA, backbone and methylation of C not given here; listed as Homo sapiens)”: the “ncRNA array expression, patient 2” value stood at 4.3; the “ncRNA array expression, patient 3” value was found to be 3.169; the “ncRNA array expression, patient 4” value amounted to 2.472; the “ncRNA array expression, patient 5” value came to 3.84. The “ncRNA array expression, patient 6” value is given as 2.191; the “ncRNA array expression, patient 7” value is on record as 4.639; the “ncRNA array expression, patient 8” value amounted to 2.888; the “ncRNA array expression, patient 9” value came out at 0.4508. The “ncRNA array expression, patient 10” value is reported as 3.549; the “ncRNA array expression, patient 19” value is 0.5363; the “ncRNA array expression, patient 20” value is on record as 1.367; the “ncRNA array expression, patient 21” value turned out to be 3.468. In addition, the “ncRNA array expression, patient 22” value is 1.187; the “ncRNA array expression, patient 23” value is given as 0.3079; the “ncRNA array expression, patient 24” value was −1.318; the “ncRNA array expression, patient 25” value is on record as 1.316. Further, the “ncRNA array expression, patient 26” value was 2.451; the “ncRNA array expression, patient 27” value was 4.706; the “ncRNA array expression, patient 28” value is reported as 0.8038; the “ncRNA array expression, patient 29” value was determined as 4.757. In addition, the “ncRNA array expression, patient 30” value was 1.117.
“SEQ ID NO 31 (TTGCTTTTGTATTTGTAATTTTATGACATTTCGAAGTTTCTGTGTCTTAACTCTTTTTAA; listed as DNA, chemistry not given here; listed as Homo sapiens)”: the “ncRNA array expression, patient 2” value came out at 2.958; the “ncRNA array expression, patient 3” value was determined as 2.154; the “ncRNA array expression, patient 4” value was 2.238; the “ncRNA array expression, patient 5” value was determined as 2.368. The “ncRNA array expression, patient 6” value was determined as 1.429; the “ncRNA array expression, patient 7” value is 4.22; the “ncRNA array expression, patient 8” value is reported as −0.4178; the “ncRNA array expression, patient 9” value stood at 2.588. For the same substance, the “ncRNA array expression, patient 10” value is on record as 3.165; the “ncRNA array expression, patient 19” value was found to be 2.105; the “ncRNA array expression, patient 20” value was 2.853; the “ncRNA array expression, patient 21” value turned out to be 4.304. Further, the “ncRNA array expression, patient 22” value came to 2.578; the “ncRNA array expression, patient 23” value amounted to 2.86; the “ncRNA array expression, patient 24” value was 1.373; the “ncRNA array expression, patient 25” value is 2.408. The “ncRNA array expression, patient 26” value is on record as 3.487; the “ncRNA array expression, patient 27” value is listed as 2.156; the “ncRNA array expression, patient 28” value amounted to 2.25; the “ncRNA array expression, patient 29” value is reported as 2.949. In addition, the “ncRNA array expression, patient 30” value is −2.886.
“SEQ ID NO 32 (ATTCAAATCTTCATGAATGGCATCACTTGCTTTAGACCCATTTTTTTTTTATTGGTCAGA; DNA, backbone and methylation of C not given here; listed as Homo sapiens)”: the “ncRNA array expression, patient 2” value was 1.211; the “ncRNA array expression, patient 3” value came to 0.4737; the “ncRNA array expression, patient 4” value turned out to be 2.717; the “ncRNA array expression, patient 5” value is reported as 1.51. Also, the “ncRNA array expression, patient 6” value is 0.7439; the “ncRNA array expression, patient 7” value is reported as 1.568; the “ncRNA array expression, patient 8” value is listed as 2.606; the “ncRNA array expression, patient 9” value is reported as 1.062. Further, the “ncRNA array expression, patient 10” value is listed as 0.7286; the “ncRNA array expression, patient 19” value was 2.126; the “ncRNA array expression, patient 20” value was 3.196; the “ncRNA array expression, patient 21” value amounted to 0.7443. In addition, the “ncRNA array expression, patient 22” value was 0.9022; the “ncRNA array expression, patient 23” value turned out to be 0.8613; the “ncRNA array expression, patient 24” value is given as 1.339; the “ncRNA array expression, patient 25” value is 4.072. The “ncRNA array expression, patient 26” value worked out at 3.121; the “ncRNA array expression, patient 27” value came out at 3.501; the “ncRNA array expression, patient 28” value came to 0.9963; the “ncRNA array expression, patient 29” value was determined as 1.473. The “ncRNA array expression, patient 30” value is reported as −2.05.

Source of the values: US20110143948A1, “MOLECULAR SIGNATURES AND BIOMARKERS ASSOCIATED WITH MELANOMA AND METHODS OF USE THEREOF” (priority 2008, published 2011).
